Results reported in patent publication US8173797B2 (Cornell Research Foundation, Inc., priority 2004, dated 2012).

Assay: solubility in aprotic NMR solvents
Format: physicochemical

In the case of `CC1OC(OC2C(O)C(C)OC(OC3C(COS(=O)(=O)O)OC(n4cnc5c(=O)[nH]c(N)nc54)C3O)C2O)C(O)C(O)C1O` (stereo not shown) [Compound 2], the solubility is reported as “quite insoluble”.
